Test [1] deals with recombinant human PD-L1(B7-H1)-His-tag protein (human) (UniProt Q9NZQ7). Description: AlphaScreen or HTRF.
The target of test [2] is human PD-L1 on CHO cells stably expressing human PD-L1 (human) (UniProt Q9NZQ7). Description: PET imaging and ex vivo biodistribution.
The target is the same in test [3]. The test can be described thus: radioligand binding.
For test [4] the target is unchanged. Description: ex vivo biodistribution with blocking dose.
For test [5], the system named is MDAMB231 and SUM149 cells. The test is classed as cell-based, human. The note with it: MDAMB231 high, SUM149 low PD-L1 expression.
The test system of the next test is hPD-L1 and CHO tumors. Description: Ex vivo biodistribution and blocking in NSG mice with hPD-L1 and CHO tumors. Set-up: species or system mouse. The note with it: co-injected with excess WL12 (50 μg, 2 mg/kg), 2 h.
Test [6] concerns hPD-L1 cells (CHO stably expressing human PD-L1) vs CHO cells. The test can be described thus: In vitro binding/uptake of [64Cu]WL12 in hPD-L1 and CHO cells. It is filed as cell-based, Chinese hamster.

human PD-L1 on CHO cells stably expressing human PD-L1 (human), sequence (Q9NZQ7 19-290): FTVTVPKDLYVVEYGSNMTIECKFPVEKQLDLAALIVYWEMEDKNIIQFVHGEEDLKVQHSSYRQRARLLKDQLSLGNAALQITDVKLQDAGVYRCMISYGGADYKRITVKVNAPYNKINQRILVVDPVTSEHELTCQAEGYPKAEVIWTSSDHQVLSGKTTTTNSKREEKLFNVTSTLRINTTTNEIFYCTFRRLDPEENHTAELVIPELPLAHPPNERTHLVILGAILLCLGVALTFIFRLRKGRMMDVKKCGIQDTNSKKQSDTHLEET
recombinant human PD-L1(B7-H1)-His-tag protein (human), sequence (Q9NZQ7 19-238): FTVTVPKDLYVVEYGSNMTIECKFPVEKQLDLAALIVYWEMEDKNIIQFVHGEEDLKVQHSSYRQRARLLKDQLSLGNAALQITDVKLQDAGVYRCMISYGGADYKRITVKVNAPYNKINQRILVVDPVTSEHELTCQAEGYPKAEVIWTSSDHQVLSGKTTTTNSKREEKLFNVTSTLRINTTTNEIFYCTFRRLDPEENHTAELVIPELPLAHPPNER

WL12-Cu (peptide): the IC50 in test [1] was found to be 0.0029 µM.
In turn, [64Cu]WL12 (peptide) came in with a tumor uptake at 1 h (%ID/g) in test [2] of 14.9 %ID/g. Further, the percent uptake of the incubated dose in test [3] was over 50%.
WL12 (peptide): the percent reduction in %ID/g of [64Cu]WL12 in hPD-L1 tumors with excess WL12 in test [4] was over 75%. In addition, the IC50 in test [1] worked out at 0.022 µM.
In the case of `CCCC[C@H]1C(=O)N(C)[C@@H](CCCC)C(=O)N[C@@H](CCCNC(=O)CCC(C(=O)O)N2CCN(CC(=O)O)CCN(CC(=O)O)CCN(CC(=O)O)CC2)C(=O)N[C@H](C(=O)NCC(N)=O)CSCC(=O)N[C@@H](Cc2ccc(O)cc2)C(=O)N(C)[C@@H](C)C(=O)N[C@@H](CC(N)=O)C(=O)N2CCC[C@H]2C(=O)N[C@@H](Cc2c[nH]cn2)C(=O)N[C@@H](CC(C)C)C(=O)N2C[C@H](O)C[C@H]2C(=O)N[C@@H](Cc2c[nH]c3ccccc23)C(=O)N[C@@H](CO)C(=O)N[C@@H](Cc2cn(C)c3ccccc23)C(=O)N1C` (some centres unmarked) [[^64Cu]WL12, metal not drawn], the “uptake of radioactivity in MDAMB231 cells compared to SUM149 cells” value in test [5] was “Two-fold higher”. In the test on hPD-L1 and CHO tumors, the “change in %ID/g in control CHO tumors on blocking” value is given as “no significant difference” and the “change in kidney uptake on blocking” value is recorded as “reduced uptake”. For the same compound, the “uptake of the incubated dose in hPD-L1 cells” value in test [6] (hPD-L1 cells incubated with [64Cu]WL12 for 1 h) is over 50%. Besides, in test [6] (hPD-L1 cells, 1 μM blocking dose of WL12), the “reduction in bound [64Cu]WL12 in the presence of blocking dose of WL12” value was over 95%. The “increase in bound radioactivity in hPD-L1 cells compared to negative control CHO cells” value in test [6] (incubation 1 h) is reported as 43 fold.

For the origin of these results see PMC5253331 (Biochemical and biophysical research communications, 2016).
